Experiments:
Type in all cases: in vivo
[1] = system: phenylquinone-writhing; assay: Analgesic action (mouse, phenylquinone-writhing test); conditions: 10 mice
Text: |(mouse, phenylquinone-writhing test)

[2] = system: Carrageenin edema; assay: Antiinflammatory action (rat, Carrageenin edema); conditions: 6 rats
Text: Antiinflammatory action
(Rat, Carrageenin edema)

[3] = system: Mouse; assay: Acute toxicity (mouse, oral, mortality); conditions: 500 mg/kg oral; observed for 7 days after dosing, mortality after 8 days
Text: The acute toxicity data for some representative isoxazolo[3,4-d]pyrimidines(I) are given below in Table 3.
(Mouse, observed for 7 days after dosing, mortality

[4] = 25 mg/kg oral, first experiment, control 12.7 ± 2.5
[5] = 25 mg/kg oral, second experiment, control 17.3 ± 2.6
[6] = 50 mg/kg oral, first experiment, control 12.7 ± 2.5
[7] = 50 mg/kg oral, second experiment, control 17.3 ± 2.6
[8] = 12.5 mg/kg oral, first experiment, control 0.543 ± 0.032
[9] = 25 mg/kg oral, first experiment, control 0.543 ± 0.032
[10] = 12.5 mg/kg oral, second experiment, control 17.3 ± 2.6
[11] = 6.25 mg/kg oral, second experiment, control 0.512 ± 0.017
[12] = 12.5 mg/kg oral, second experiment, control 0.512 ± 0.017
[13] = 25 mg/kg oral, third experiment, control 13.7 ± 1.2

| SMILES | % Suppression [1, 4] | Average number of writhings & standard error [1, 4] | % Suppression [1, 5] | Average number of writhings & standard error [1, 5] | % Suppression [1, 6] | Average number of writhings & standard error [1, 6] | Mortality [3] | further results |
| --- | --- | --- | --- | --- | --- | --- | --- | --- |
| COc1ccc2c3c1O[C@H]1[C@@H](O)C=C[C@H]4[C@@H](C2)N(C)CC[C@@]341 [Codeine phosphate, reference compound] | 72.4% | 3.5 ± 1.2 | – | – | – | – | – | – |
| Cc1onc2c1c(=O)n(C)c(=O)n2C [Ia, 3,5,7-Trimethyl-5H,7H-isoxazolo[3,4-d]pyrimidine-4,6-dione] | 54.3% | 5.8 ± 2.4 | 67.1% | 5.7 ± 1.5 | 55.9% | 5.6 ± 2.3 | 1/5 | % Suppression [1, 7]: 93.1%; Average number of writhings & standard error [1, 7]: 1.2 ± 0.5; % Suppression [2, 8]: 21.4%; Volume of edema & standard error [2, 8]: 0.427 ± 0.030 mL; % Suppression [2, 9]: 35.5%; Volume of edema & standard error [2, 9]: 0.350 ± 0.061 mL |
| Cn1c(=O)c2conc2n(C)c1=O [Ib, 5,7-Dimethyl-5H,7H-isoxazolo[3,4-d]pyrimidine-4,6-dione] | 63.8% | 4.6 ± 1.2 | 77.5% | 3.9 ± 1.0 | 92.1% | 1.0 ± 0.8 | 1/5 | % Suppression [1, 10]: 54.9%; Average number of writhings & standard error [1, 10]: 7.8 ± 1.9; % Suppression [2, 11]: 21.9%; Volume of edema & standard error [2, 11]: 0.400 ± 0.037 mL; % Suppression [2, 12]: 32.0%; Volume of edema & standard error [2, 12]: 0.348 ± 0.014 mL |
| CCn1c(=O)c2conc2n(CC)c1=O [Ic] | – | – | – | – | – | – | – | % Suppression [1, 13]: 47.4%; Average number of writhings & standard error [1, 13]: 7.2 ± 1.5 |

Reference: US4202975A, “Isoxazolo[3,4-d]pyrimidines” (Takeda Chemical Industries, Ltd., priority 1976, dated 1980)
